Measured values published in US20110059102A1, “Therapeutic Method Targeting Midkine” (NATIONAL UNIVERSITY CORPORATION NAGOYA UNIVERSITY, priority 2009, published 2011).
“Also recorded” adds a separate entry of the source. Structures can show the parent of a compound that is named as a salt.

B1: PTN: recombinant human pleiotrophin, shows 50% homology with MK (protein, UniProt P21246 33-168, looked up)
Pleiotrophin: GKKEKPEKKVKKSDCGEWQWSVCVPTSGDCGLGTREGTRTGAECKQTMKTQRCKIPCNWKKQFGAECKYQFQAWGECDLNTALKTRTGSLKRALHNAECQKTVTISKPCGKLTKPKPQAESKKKKKEGKKQEKMLD

Key:
[1] = system: Mdk+/+ mice after 5/6 nephrectomy; test: Kidney histology (PAS staining) after 5/6 nephrectomy, drug treatment model; type: in vivo; conditions: 2 weeks after 5/6 nephrectomy; for Renal tubulointerstitial damage: PAS staining
Experimental: (§1) Drug treatment model. In the drug treatment studies, Mdk^+/+ mice were randomly assigned to receive one of the following 5 treatments after 5/6 nephrectomy and were orally treated daily starting from 24 hours after 5/6 nephrectomy: vasodilator (hydralazine hydrochloride; Novartis) at a dose of 10 mg/kg/d (group 1, n=3); ACE inhibitor (temocapril; Daiichi Sankyo Co.) at a dose of 3 mg/kg/d (group 2, n=3); angiotensin receptor blocker (olmesartan; Daiichi Sankyo Co.) at a dose of 3 mg/kg/d (group 3, n=3); antioxidative reagent (tempol; Alexis Biochemicals) at a dose of 3 mmol/l in drinking solution after 5/6 nephrectomy (group 4, n=6); and sham operation (group 5, n=6). Drug treatment was performed […]. In the present study, we determined the dosage according to previous reports (Hypertension. 13:582-588, J. Cardiovasc. Pharmacol. 40:533-542, Hypertension. 43:841-848). Blood pressure was measured by the tail-cuff method at 2 weeks, as described below under Blood pressure monitoring. Mice were sacrificed at 2 weeks after 5/6 nephrectomy, and blood and tissue samples were collected.
Histology and immunohistochemistry.

[2] = system: Mdk+/+ mice after 5/6 nephrectomy; test: Blood pressure by tail-cuff method, drug treatment model after 5/6 nephrectomy; type: in vivo; conditions: 2 weeks after 5/6 nephrectomy
Experimental: as §1
(§2) Blood pressure monitoring. Blood pressure was measured in restrained, conscious mice by the indirect tail-cuff technique under unstressed conditions (BP-98A; Softron) at 0, 2, 4, 6, and 8 weeks after 5/6 nephrectomy (J. Lab. Clin. Med. 78:957-962). Before measurement, the mice were warmed with a heating pad for 5 minutes. A total of 7-10 readings were taken for each mouse, at 1- to 2-minute intervals.

[3] = Body weight, blood urea nitrogen and serum creatinine after 5/6 nephrectomy, drug treatment model; type: in vivo; conditions: Mdk+/+ mice; for BUN (blood urea nitrogen) / Cre (serum creatinine): 2 weeks after nephrectomy, oral daily at indicated dose, mean ± SD; for Abnormal elevation of blood urea nitrogen and serum creatinine: 2 weeks after 5/6 nephrectomy
Experimental: Animals and experimental design. Mice deficient in Mdk were generated as described previously (Genes Cells. 3:811-822). After backcrossing of Mdk+/− mice for 14 generations with 129/Sv mice, Mdk+/− mice were mated with each other to generate Mdk^+/+ and Mdk^−/− mice, which were used in this study. Experiments were performed on 8 to 12-week-old female mice weighing 20-25 g that were housed under controlled environmental conditions and maintained with standard food and water. Animal care and experimental procedures were approved by the Animal Experimentation Committee of the Nagoya University Graduate School of Medicine and were conducted according to the Nagoya University Regulations for Experiments. Renal ablation was performed as described previously. Briefly, mice were anesthetized by diethyl ether. The flank region was shaved, and the animals were placed on a heating pad to maintain a constant body temperature (37° C.). Under anesthesia, right flank incisions were made, and the right kidney was removed. Seven days later, mice were anesthetized as above, and two-thirds of the mass of the left kidneys was ablated (Mdk^+/+: 2 weeks, n=13; 4 weeks, n=13; 8 weeks, n=8; Mdk^−/−: 2 weeks, n=10; 4 weeks, n=10; 8 weeks, n=4). After the renal ablation, the flanks were closed in 2 layers with 5-0 silk sutures. The animals received 100 ml/kg warm saline instilled into the peritoneal cavity during the procedure and were allowed to recover with free access to food and water. In the control mice, a sham operation was performed (Mdk^+/+, n=11; Mdk^−/−, n=8).
as §1
Sample collection. Mice were sacrificed at 2, 4, and 8 weeks after 5/6 nephrectomy. The remnant kidney, lung, brain, heart, and liver were removed rapidly, snap-frozen in liquid nitrogen, and stored at −80° C. until examinations were performed. Each tissue was processed for histology, protein extraction, and RNA extraction. Blood samples were collected into chilled tubes for measurement of renal function parameters and into chilled tubes containing EDTA for Ang II measurements. Serum and plasma were separated by centrifugation (500 g for 10 minutes) and stored at −80° C. until measurement were performed. Serum creatinine, blood urea nitrogen (Mdk^+/+: sham, n=6; 2 weeks, n=10; 4 weeks, n=9; 8 weeks, n=8; Mdk^−/−: sham, n=7; 2 weeks, n=7; 4 weeks, n=6; 8 weeks, n=4), and Ang II concentrations (Mdk^+/+: sham, n=6; 2 weeks, n=6; 4 weeks, n=8; Mdk^−/−: sham, n=6; 2 weeks, n=7; 4 weeks, n=5) were measured by Mitsubishi BCL.

[4] = system: ACE; test: ACE expression in HMVEC-L by Western blotting; type: cell-based, human
Source text: Histology and immunohistochemistry. The removed kidneys and lungs were fixed in 10% buffered formalin, embedded in paraffin, and then cut into 4-10.1 μm sections. The sections were stained with H&E, PAS, and Masson's trichrome. Another tissue sample was embedded in OCT compound (Sakura Finetek) and frozen in liquid nitrogen for immunostaining. Sections were cut to a thickness of 3 μm with a cryostat and fixed in acetone. High-power fields were used to examine the sections for evidence of focal sclerosis (J. Hypertens. 13:1785-1790, J. Lab. Clin. Med. 115:165-173). Glomerular sclerosis was assessed by semiquantitative score (grades 0 to +4) using the method of Raij et al. (Kidney Int. 26:137-143): grade 0, no sclerosis of glomeruli; grade 1, sclerosis of up to 25% of glomerulus; grade 2, sclerosis of 25%-50% of glomerulus; grade 3, sclerosis of 50%-75% of glomerulus; grade 4, sclerosis of 75%-100% of glomerulus. At least 50 glomeruli were evaluated under ×400 magnification and results averaged for each kidney (Mdk^+/+: 2 weeks, n=5; 4 weeks, n=4; 8 weeks, n=4; Mdk^−/−: 2 weeks, n=4; 4 weeks, n=3; 8 weeks, n=3). Immunostaining for ACE and MK was performed on buffered formalin-fixed tissues. Sections were deparaffinized, rehydrated, incubated in 3% hydrogen peroxide in methanol to block endogenous peroxidase, and washed in 10% normal goat serum (Dako) in PBS to block nonspecific binding. Subsequently, sections were incubated with mouse anti-ACE monoclonal antibody (dilution, 1:400; Chemicon International, Millipore) or anti-MK monoclonal antibody (dilution, 1:100) overnight at 4° C. as described previously (22), followed by a conjugate of polyclonal goat anti-mouse IgG antibody and HRP-labeled polymer (Histofine Simple Stain; Nichirei) for 1 hour at room temperature as a secondary antibody. The staining was visualized with 3-3′ diaminobenzidine (Nichirei) to produce a brown color. The sections were covered with 90% glycerol containing p-phenylenediamine and were examined by electron microscopy (H-7100; Hitachi). For double immunofluorescence staining of MK and thrombomodulin as a marker of the vascular endothelium, the cryosections of lungs were first incubated with chicken anti-human MK (dilution, 1:200) and then with rabbit anti-rat thrombomodulin (dilution, 1:1,000) (J. Immunol. 150:5633-5646), followed by incubation with FITC-labeled rabbit anti-chicken IgG (dilution, 1:160) and rhodamine-labeled goat anti-rabbit IgG (dilution, 1:320) as secondary antibodies. […] The lung and kidney section from each mouse was viewed under ×400 magnification, and then macrophages or neutrophils were counted from 10 fields and averaged. […]

[5] = system: MK; test: MK protein expression in lung and kidney by Western blotting after 5/6 nephrectomy; type: in vivo; conditions: Mdk+/+ mice after 5/6 nephrectomy
Experimental: as §1
Western blot analysis. Mouse kidney, lung, brain, heart, and liver tissues were snap-frozen in liquid nitrogen for protein isolation. […] The density of each band was measured using the public domain NIH Image program (http://rsb.info.nih.gov/nih-image/).

[6] = system: Ang II; test: Plasma Ang II concentration after 5/6 nephrectomy; type: in vivo; conditions: Mdk+/+ mice after 5/6 nephrectomy
Experimental: as §1, with “Mice were sacrificed at 2 weeks after 5/6 nephrectomy, and blood and tissue samples were collected.” left out
Sample collection. […] Serum creatinine, blood urea nitrogen (Mdk^+/+: sham, n=6; 2 weeks, n=10; 4 weeks, n=9; 8 weeks, n=8; Mdk^−/−: sham, n=7; 2 weeks, n=7; 4 weeks, n=6; 8 weeks, n=4), and Ang II concentrations (Mdk^+/+: sham, n=6; 2 weeks, n=6; 4 weeks, n=8; Mdk^−/−: sham, n=6; 2 weeks, n=7; 4 weeks, n=5) were measured by Mitsubishi BCL.

[7] = system: HMVEC-L; test: Ang II concentration in HMVEC-L (conversion from Ang I to Ang II); type: cell-based, human; conditions: HMVEC-L treated 36 hours with MK 100 ng/ml plus heparin 20 μg/ml or heparin alone, then Ang I added
Experimental: Ang II concentration in HMVEC-L. After reaching confluence, HMVEC-L were washed with PBS and cultured for 24 hours in essential basal medium containing 0.5% FBS. These cells were exposed to 100 ng/ml rh-MK plus 20 μg/ml heparin or 20 μg/ml heparin alone in essential basal medium containing 0.5% FBS for 36 hours. After stimulation, HMVEC-L were washed with PBS and exposed to 500 pM Ang I (Sigma-Aldrich) for 10 and 25 minutes. Supernatants were collected into chilled tubes, and then the Ang II concentration was measured as previously described (Hypertension. 39:129-134).

[8] = system: Mdk-/- mice after 5/6 nephrectomy; test: rh-MK and -PTN treatment model (osmotic pump), blood pressure by tail-cuff; type: in vivo; conditions: 1.6 mg/ml, 100 μl by osmotic pump over 14 days
Experimental: rh-MK and -PTN treatment model. In the pump study, MK protein in saline (1.6 mg/ml) (n=5), PTN in saline (1.6 mg/ml; n=5), or saline alone (n=5) was infused using an osmotic pump (ALZA Corp.) into Mdk^−/− mice after 5/6 nephrectomy. The pumps continuously infused a total of 100 μl over 14 days. The pumps were implanted under the dorsal skin the next day after 5/6 nephrectomy. Blood pressure was measured by the indirect tail-cuff technique at 0 and 2 weeks after 5/6 nephrectomy. Mice were sacrificed at 2 weeks after 5/6 nephrectomy, and blood and tissue samples were collected.
as §2

Row | Molecule | Renal tubulointerstitial damage [1] | Blood pressure / hypertension [2] | BUN (blood urea nitrogen) [3] | Cre (serum creatinine) [3] | Abnormal elevation of blood urea nitrogen and serum creatinine [3] | further results
1 | CCOC(=O)[C@H](CCc1ccccc1)N[C@H]1CS[C@H](c2cccs2)CN(CC(=O)O)C1=O [Temocapril, temocapril] | reduced | reduced | 30.3 ± 2.9^A mg/dl | 0.21 ± 0.04^A mg/dl | ameliorated | 
2 | CN(C)CCCn1cc(C2=C(c3c[nH]c4ccccc34)C(=O)NC2=O)c2ccccc21 [BIS, bisindolylmaleimide I] |  |  |  |  |  | MK-mediated increase in ACE expression ([4]; BIS 5 μM added 1 hour before 36-hour treatment with rh-MK plus heparin): blocked; PMA-induced increase in ACE expression ([4]; BIS added 1 hour before PMA): blocked
3 | NNc1nncc2ccccc12 [Hydralazine, hydralazine hydrochloride] | not | ameliorated hypertension | 63.3 ± 7.6 mg/dL | 0.53 ± 0.12 mg/dL | not | 
4 | CCCCCCCCCCCCCC(=O)O[C@@H]1[C@@H](C)[C@@]2(O)[C@@H](C=C(CO)C[C@]3(O)C(=O)C(C)=C[C@@H]23)[C@@H]2C(C)(C)[C@]12OC(C)=O [PMA] |  |  |  |  |  | ACE expression in HMVEC-L ([4]; PMA 50 ng/ml): induced
5 | CC1(C)CC(O)CC(C)(C)N1[O] [Tempol, 4-hydroxy-2,2,6,6-tetramethylpiperidine-N-oxyl] | slight; also recorded: ameliorated | reduced | 41.2 ± 3.9^B mg/dl | 0.25 ± 0.04^A mg/dl | significantly reduced | MK expression in the lung ([5]; tempol 3 mmol/l in drinking water): reduced MK expression to normal levels; MK expression in the kidney ([5]; tempol in drinking water): reduced; Glomerular sclerosis [1]: ameliorated; Plasma Ang II levels [6]: reduced
6 | CCCc1nc(C(C)(C)O)c(C(=O)O)n1Cc1ccc(-c2ccccc2-c2nnn[nH]2)cc1 [Olmesartan, olmesartan] |  |  | 36.0 ± 1.0^B mg/dl | 0.21 ± 0.01^A mg/dl |  | 
7 | heparin |  |  |  |  |  | Conversion of Ang I to Ang II [7]: did not show such a conversion
8 | B1 |  |  |  |  |  | Hypertension (SBP) [8]: neither induced hypertension
